According to patent publication US20110028422A1 (priority 2007, published 2011):

Key:
CLL lymphocytes = assay: MTT cytotoxic assay, CLB sensitization (Example I); type: cell-based, human; conditions: MTT 72 h
Method: Aliquots containing 1×10^6 cells/ml are sent for T-lymphocyte analysis. The percentage of contaminating T lymphocytes is determined using fluorescence-activated cell sorting analysis with CD3 antibody. […] A-2) Plating Efficiency and Dosing. […] Only dose responses with linear plating efficiencies are analyzed. […] A-3) Cytotoxic Assay. […] The percentage of surviving cells after treatment respect to vehicle treated cells (control) is calculated as (OD treated cells/OD untreated cells)×100. […] A-4) Statistical Analysis Differences between mean values is assessed by two tailed t-test. Correlation and linear regression analysis are performed using the EXCEL Statistical Tool Package.

H2AX = assay: CLB-induced H2AX; type: cell-based
NFκB pathway = NFκB pathway regulation; type: cell-based; conditions: c-abl inhibition; B-CLL lymphocytes

## Cc1cn(-c2cc(NC(=O)c3ccc(C)c(Nc4nccc(-c5cccnc5)n4)c3)cc(C(F)(F)F)c2)cn1 [Nilotinib, 4-methyl-3-[[4-(3-pyridinyl)-2-pyrimidinyl]amino]-N-[5-(4-methyl-1H-imidazol-1-yl)-3-(trifluoromethyl)phenyl]benzamide]
CLL lymphocytes
  samples in which potency in sensitizing CLL lymphocytes towards chlorambucil was greater than imatinib: 16/19
H2AX
  CLB-induced □ H2AX: increased
NFκB pathway
  NFκB pathway: down regulation
